Source: patent US20260356830A1, “COMPOUNDS FOR MODULATING RET PROTEIN” (Bristol-Myers Squibb Company, priority 2022, published 2026)

Target: T1, CCDC6-RET (Homo sapiens, UniProt P07949+Q16204+Q96SW2)
T1 construct: CCDC6 (natural N-terminal fusion partner, UniProt Q16204); endogenous in cells; host or cells: TPC-1 (parental, papillary thyroid carcinoma)
Experiment: Cellular RET degradation, AlphaLISA, TPC-1 cell line
Format: cell-based
Procedure, shortened: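 TPC-1 papillary thyroid carcinoma cells (endogenous CCDC6-RET) in DMEM with 2% FBS, compound-treated 24 h at 37 °C. RET in lysates quantified by AlphaLISA luminescence, normalized to media-only and DMSO wells; DC50 and maximal degradation from 4-parameter logistic fit.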

T1 sequence (Q16204+P07949 fused): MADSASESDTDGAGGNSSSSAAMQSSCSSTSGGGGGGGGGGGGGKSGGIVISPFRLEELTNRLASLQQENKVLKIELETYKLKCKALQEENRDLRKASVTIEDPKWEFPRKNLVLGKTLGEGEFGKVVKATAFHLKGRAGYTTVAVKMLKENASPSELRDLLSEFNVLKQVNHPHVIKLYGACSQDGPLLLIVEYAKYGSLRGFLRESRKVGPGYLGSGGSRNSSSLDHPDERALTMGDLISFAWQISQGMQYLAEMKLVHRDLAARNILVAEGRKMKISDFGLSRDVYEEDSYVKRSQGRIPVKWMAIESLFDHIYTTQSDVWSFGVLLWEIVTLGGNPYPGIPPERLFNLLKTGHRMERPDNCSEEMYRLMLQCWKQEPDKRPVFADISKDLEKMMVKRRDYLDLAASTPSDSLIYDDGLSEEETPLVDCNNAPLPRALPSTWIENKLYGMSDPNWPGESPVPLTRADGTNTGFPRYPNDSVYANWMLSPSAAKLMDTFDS
T1 sequence (Q96SW2 whole entry, the tested form may be a part): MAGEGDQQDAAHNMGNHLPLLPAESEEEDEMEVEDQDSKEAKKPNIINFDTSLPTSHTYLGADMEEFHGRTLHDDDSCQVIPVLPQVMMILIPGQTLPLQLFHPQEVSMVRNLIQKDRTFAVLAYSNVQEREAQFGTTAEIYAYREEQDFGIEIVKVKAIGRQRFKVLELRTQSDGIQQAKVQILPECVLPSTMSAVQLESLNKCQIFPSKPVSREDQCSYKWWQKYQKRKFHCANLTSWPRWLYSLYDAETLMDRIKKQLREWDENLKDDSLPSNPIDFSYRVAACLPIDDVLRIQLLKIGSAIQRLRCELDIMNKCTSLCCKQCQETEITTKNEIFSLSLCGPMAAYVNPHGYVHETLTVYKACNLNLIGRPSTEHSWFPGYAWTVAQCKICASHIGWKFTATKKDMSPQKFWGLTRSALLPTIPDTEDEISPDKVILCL
T1 sequence (Q16531 whole entry partner, the tested form may be a part): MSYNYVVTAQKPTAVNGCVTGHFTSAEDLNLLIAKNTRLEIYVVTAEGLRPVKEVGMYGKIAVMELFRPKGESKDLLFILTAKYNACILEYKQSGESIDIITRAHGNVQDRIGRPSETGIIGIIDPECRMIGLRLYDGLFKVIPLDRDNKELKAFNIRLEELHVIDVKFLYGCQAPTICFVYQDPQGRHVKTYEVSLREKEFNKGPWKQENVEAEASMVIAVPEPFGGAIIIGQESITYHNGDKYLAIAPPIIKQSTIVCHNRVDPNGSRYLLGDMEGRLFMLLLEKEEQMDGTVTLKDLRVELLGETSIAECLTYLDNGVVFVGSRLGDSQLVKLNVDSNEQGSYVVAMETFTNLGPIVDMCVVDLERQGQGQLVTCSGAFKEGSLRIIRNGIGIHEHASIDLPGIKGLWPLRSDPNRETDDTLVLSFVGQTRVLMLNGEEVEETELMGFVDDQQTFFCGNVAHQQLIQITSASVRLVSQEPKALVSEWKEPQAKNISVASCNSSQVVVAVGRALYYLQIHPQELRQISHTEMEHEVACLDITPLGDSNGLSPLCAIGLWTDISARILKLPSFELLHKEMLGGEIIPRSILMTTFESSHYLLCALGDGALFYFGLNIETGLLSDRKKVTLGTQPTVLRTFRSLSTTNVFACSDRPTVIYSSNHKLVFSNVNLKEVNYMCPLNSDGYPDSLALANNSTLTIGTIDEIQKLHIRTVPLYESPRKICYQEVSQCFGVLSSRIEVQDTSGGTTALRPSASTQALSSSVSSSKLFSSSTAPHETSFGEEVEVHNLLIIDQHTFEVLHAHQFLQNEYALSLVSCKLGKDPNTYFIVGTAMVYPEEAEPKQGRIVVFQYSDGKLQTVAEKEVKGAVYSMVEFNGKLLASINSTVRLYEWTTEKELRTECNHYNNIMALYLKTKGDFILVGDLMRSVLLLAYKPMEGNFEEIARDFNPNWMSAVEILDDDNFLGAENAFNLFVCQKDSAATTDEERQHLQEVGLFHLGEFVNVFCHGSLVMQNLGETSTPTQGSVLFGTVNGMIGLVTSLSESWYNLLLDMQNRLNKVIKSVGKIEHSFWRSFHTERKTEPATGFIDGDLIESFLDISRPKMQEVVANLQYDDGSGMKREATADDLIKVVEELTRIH

Dmax (TPC1, human, 24 h, read-out: Cell Density TPC-1/CCDC6-RET Ymax %): 60 to 90% | DC50 (read-out: Cell Density TPC-1/CCDC6-RET DC50, half-maximal degradation concentration, TPC-1 (CCDC6-RET), 24 hrs): 2 to 10 nM
SMILES: CCOc1cc(-c2ccc(N3CCC(CN4CCN(C(=O)CCCCCCN5CCN(c6ccc7c(c6)CN(C6CCC(=O)NC6=O)C7=O)CC5)CC4)(NC(=O)c4ncccc4F)CC3)nc2)c2c(C#N)cnn2c1 (centres unmarked) [Example 2, N-(1-(5-(3-cyano-6-ethoxypyrazolo[1,5-a]pyridin-4-yl)pyridin-2-yl)-4-((4-(7-(4-(2-(2,6-dioxopiperidin-3-yl)-1-oxoisoindolin-5-yl)piperazin-1-yl)heptanoyl)piperazin-1-yl)methyl)piperidin-4-yl)-3-fluoropicolinamide]
